Structures can show the parent of a compound that is named as a salt.
How the values were obtained:
AXL = molecular target: T1, AXL (Homo sapiens, UniProt P30530); assay: TR-FRET kinase activity assay, AXL; type: biochemical; details: ATP at Km, 60 minutes
T1 sequence (P30530 26-894): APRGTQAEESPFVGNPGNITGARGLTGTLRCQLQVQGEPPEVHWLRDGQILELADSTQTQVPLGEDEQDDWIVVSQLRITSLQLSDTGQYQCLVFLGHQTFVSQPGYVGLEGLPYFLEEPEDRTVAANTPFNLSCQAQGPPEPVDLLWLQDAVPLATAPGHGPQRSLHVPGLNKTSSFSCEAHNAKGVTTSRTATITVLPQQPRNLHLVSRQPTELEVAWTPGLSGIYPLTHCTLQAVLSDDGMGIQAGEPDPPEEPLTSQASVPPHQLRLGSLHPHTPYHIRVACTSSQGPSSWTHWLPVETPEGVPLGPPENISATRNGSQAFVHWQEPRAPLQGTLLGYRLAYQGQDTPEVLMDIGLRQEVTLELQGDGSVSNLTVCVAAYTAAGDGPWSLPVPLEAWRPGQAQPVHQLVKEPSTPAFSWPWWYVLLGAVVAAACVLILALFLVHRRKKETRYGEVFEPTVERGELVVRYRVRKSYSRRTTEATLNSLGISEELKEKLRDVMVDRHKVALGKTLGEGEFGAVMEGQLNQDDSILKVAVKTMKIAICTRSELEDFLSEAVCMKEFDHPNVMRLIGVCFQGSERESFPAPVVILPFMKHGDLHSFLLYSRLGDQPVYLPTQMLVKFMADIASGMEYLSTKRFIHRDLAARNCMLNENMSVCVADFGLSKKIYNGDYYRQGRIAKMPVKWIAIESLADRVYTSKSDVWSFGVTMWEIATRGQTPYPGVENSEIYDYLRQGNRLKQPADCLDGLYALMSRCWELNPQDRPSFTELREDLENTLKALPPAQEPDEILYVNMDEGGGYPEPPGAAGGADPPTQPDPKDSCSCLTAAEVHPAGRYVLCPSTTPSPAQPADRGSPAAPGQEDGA
How it was run: (§1)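 Inhibition is measured as loss of phospho-peptide formation: kinase, fluorescent tyrosine peptide and compound are combined, ATP is added at Km, and the reaction proceeds 60 min at RT in pH 7.5 HEPES buffer. An EDTA stop and Eu-labelled phospho-specific antibody allow TR-FRET detection for IC50 fitting.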

FLT3 = molecular target: T2, FLT3 (Homo sapiens, UniProt P36888); assay: TR-FRET kinase activity assay, FLT3; type: biochemical; details: ATP at Km, 60 minutes
T2 sequence (P36888 27-993): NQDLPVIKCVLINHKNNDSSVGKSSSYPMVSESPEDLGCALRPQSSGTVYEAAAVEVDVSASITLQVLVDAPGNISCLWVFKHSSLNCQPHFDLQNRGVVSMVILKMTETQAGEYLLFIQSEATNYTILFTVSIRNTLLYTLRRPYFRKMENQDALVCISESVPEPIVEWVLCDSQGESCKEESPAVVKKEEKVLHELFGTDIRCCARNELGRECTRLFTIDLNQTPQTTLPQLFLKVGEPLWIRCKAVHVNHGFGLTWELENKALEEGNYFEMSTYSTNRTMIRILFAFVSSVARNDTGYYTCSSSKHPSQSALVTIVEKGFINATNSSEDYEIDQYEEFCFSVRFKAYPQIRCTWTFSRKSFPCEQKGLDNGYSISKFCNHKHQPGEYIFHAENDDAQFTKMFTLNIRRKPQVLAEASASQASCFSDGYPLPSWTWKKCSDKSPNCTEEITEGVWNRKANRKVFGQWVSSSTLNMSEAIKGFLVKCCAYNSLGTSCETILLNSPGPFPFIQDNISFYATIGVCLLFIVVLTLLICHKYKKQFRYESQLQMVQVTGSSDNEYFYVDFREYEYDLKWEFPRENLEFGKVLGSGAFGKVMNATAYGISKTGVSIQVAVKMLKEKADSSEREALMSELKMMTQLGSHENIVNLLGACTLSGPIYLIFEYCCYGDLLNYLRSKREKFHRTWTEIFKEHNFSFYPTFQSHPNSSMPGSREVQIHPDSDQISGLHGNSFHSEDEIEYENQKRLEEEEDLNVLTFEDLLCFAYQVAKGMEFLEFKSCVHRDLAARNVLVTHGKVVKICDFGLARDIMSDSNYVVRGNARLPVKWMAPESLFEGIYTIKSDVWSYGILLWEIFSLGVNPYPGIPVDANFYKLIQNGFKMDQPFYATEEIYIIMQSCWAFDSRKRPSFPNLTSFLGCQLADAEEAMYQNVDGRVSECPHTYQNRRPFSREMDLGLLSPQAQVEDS
How it was run: as §1

| Compound | IC50 (AXL) | IC50 (FLT3) |
| --- | --- | --- |
| COC[C@H](C)Nc1ncc2c(-c3cnn(Cc4cncc(C)n4)c3)cc([C@H]3CC[C@H](O)CC3)n2n1 [Compound 329] | ≤ 100 nM | 100 to 1000 nM |
| COC[C@H](C)Nc1ncc2c(-c3cnn(C(C)(C)C(=O)N4CC5(COC5)C4)c3)cc([C@H]3CC[C@H](O)CC3)n2n1 [Compound 326] | ≤ 100 nM | 1000 to 10000 nM |
| C[C@@H](CC(F)(F)F)Nc1ncc2c(-c3cncc(C(=O)O)c3)cc([C@H]3CC[C@H](O)CC3)n2n1 [Compound 298] | ≤ 100 nM | 1000 to 10000 nM |
| COC[C@H](C)Nc1ncc2c(-c3cnn(C4CN(C(=O)C5(C(F)(F)F)CC5)C4)c3)cc([C@H]3CC[C@H](O)CC3)n2n1 [Compound 294] | ≤ 100 nM | ≤ 100 nM |
| COC[C@H](C)Nc1ncc2c(-c3ccc(S(C)(=O)=O)nc3)cc([C@H]3CC[C@H](O)CC3)n2n1 [Compound 279] | ≤ 100 nM | 100 to 1000 nM |
| COC[C@H](C)Nc1ncc2c(-c3cnn(Cc4ccc(S(C)(=O)=O)cc4)c3)cc([C@H]3CC[C@H](O)CC3)n2n1 [Compound 314] | ≤ 100 nM | ≤ 100 nM |
| COC[C@H](C)Nc1ncc2c(-c3ccnc(NC(C)C)c3)cc([C@H]3CC[C@H](O)CC3)n2n1 [Compound 337] | ≤ 100 nM | 100 to 1000 nM |
| CCCCC[C@H](C)Nc1ncc2c(C3=CC[C@@H](C(=O)N4CCOCC4)CC3)cc([C@H]3CC[C@H](O)CC3)n2n1 [Compound 113] | ≤ 100 nM | 100 to 1000 nM |
| COC[C@H](C)Nc1ncc2c(-c3cnn(C(C)(C)C(=O)N4C[C@@H](C)O[C@@H](C)C4)c3)cc([C@H]3CC[C@H](O)CC3)n2n1 [Compound 320] | ≤ 100 nM | 1000 to 10000 nM |
| COC[C@H](C)Nc1ncc2c(-c3cc(C)nc(C)c3)cc([C@H]3CC[C@H](O)CC3)n2n1 [Compound 308] | 100 to 1000 nM | 1000 to 10000 nM |
| CCCCC[C@H](C)Nc1ncc2c(N3CCC(N(C)C)CC3)cc(C3CCC(O)CC3)n2n1.Cl (stereo partly drawn) [Compound 115, 4-[5-[4-(dimethylamino)-1-piperidyl]-2-[[(1S)-1-methylhexyl]amino]pyrrolo[2,1-f][1,2,4]triazin-7-yl]cyclohexanol hydrochloride] | 100 to 1000 nM | 1000 to 10000 nM |
| COC[C@H](C)Nc1ncc2c(-c3cnn(C4CCS(=O)(=O)CC4)c3)cc([C@H]3CC[C@H](O)CC3)n2n1 [Compound 323] | ≤ 100 nM | 100 to 1000 nM |
| CNS(=O)(=O)c1cncc(-c2cc([C@H]3CC[C@H](O)CC3)n3nc(N[C@@H](C)COC(F)F)ncc23)c1 [Compound 275] | ≤ 100 nM | 1000 to 10000 nM |
| COC[C@H](C)Nc1ncc2c(-c3ccnc(N4CCNC(=O)C4)c3)cc([C@H]3CC[C@H](O)CC3)n2n1 [Compound 340] | ≤ 100 nM | 100 to 1000 nM |
| CCCCC[C@H](C)Nc1ncc2c(C3CCNCC3)cc([C@H]3CC[C@H](O)CC3)n2n1 [Compound 116, (1S,4r)-4-(2-((S)-heptan-2-ylamino)-5-(piperidin-4-yl)pyrrolo[2,1-f][1,2,4]triazin-7-yl)cyclohexanol hydrochloride] | ≤ 100 nM | 100 to 1000 nM |
| COC[C@H](C)Nc1ncc2c(-c3ccc(CN4CCOCC4)cc3)cc([C@H]3CC[C@H](NS(C)(=O)=O)CC3)n2n1 [Compound 301] | ≤ 100 nM | ≤ 100 nM |
| CCCCC[C@H](C)Nc1ncc2c(N3CCC(C(=O)O)CC3)cc([C@H]3CC[C@H](O)CC3)n2n1 [Compound 117] | 100 to 1000 nM | 1000 to 10000 nM |

Now from value to compound:

| IC50 (AXL) | IC50 (FLT3) | Compound |
| --- | --- | --- |
| ≤ 100 nM | 100 to 1000 nM | COC[C@H](C)Nc1ncc2c(-c3cnn(C(C)(C)C(=O)N4CCS(=O)(=O)CC4)c3)cc([C@H]3CC[C@H](O)CC3)n2n1 [Compound 331, 1-(1,1-dioxidothiomorpholino)-2-(4-(7-((trans)-4-hydroxycyclohexyl)-2-(((S)-1-methoxypropan-2-yl)amino)pyrrolo[2,1-f][1,2,4]triazin-5-yl)-1H-pyrazol-1-yl)-2-methylpropan-1-one] |
| ≤ 100 nM | 100 to 1000 nM | COC[C@H](C)Nc1ncc2c(-c3cnn(Cc4cc(C)nn4C)c3)cc([C@H]3CC[C@H](O)CC3)n2n1 [Compound 333] |
| 100 to 1000 nM | 1000 to 10000 nM | CNC(=O)c1ncc(-c2cc([C@H]3CC[C@H](O)CC3)n3nc(N[C@@H](C)COC)ncc23)cn1 [Compound 334] |
| ≤ 100 nM | 100 to 1000 nM | COC[C@H](C)Nc1ncc2c(-c3cnn(C4CC(C(=O)OC)C4)c3)cc([C@H]3CC[C@H](O)CC3)n2n1 (stereo partly drawn) [Compound 330] |
| ≤ 100 nM | 100 to 1000 nM | COC[C@H](C)Nc1ncc2c(-c3ccnc(OC4CCCN(C)C4)c3)cc([C@H]3CC[C@H](O)CC3)n2n1 (stereo partly drawn) [Compound 341] |
| ≤ 100 nM | ≤ 100 nM | CNC(=NC#N)N[C@H]1CC[C@H](c2cc(-c3ccc(CN4CCOCC4)cc3)c3cnc(N[C@@H](C)COC)nn32)CC1 [Compound 307] |
| 100 to 1000 nM | 1000 to 10000 nM | COC[C@H](C)Nc1ncc2c(-c3cnn(C(C)(C)C(=O)O)c3)cc([C@H]3CC[C@H](O)CC3)n2n1 [Compound 284] |
| ≤ 100 nM | 100 to 1000 nM | COC[C@H](C)Nc1ncc2c(-c3cnn(C(C)(C)C(=O)N4CCOCC4)c3)cc([C@H]3CC[C@H](O)CC3)n2n1 [Compound 282] |
| ≤ 100 nM | 100 to 1000 nM | C[C@@H](CC(F)(F)F)Nc1ncc2c(-c3cn[nH]c3)cc([C@H]3CC[C@H](O)CC3)n2n1 [Compound 276] |
| 100 to 1000 nM | 100 to 1000 nM | CNS(=O)(=O)c1cncc(-c2cc([C@H]3CC[C@H](O)CC3)n3nc(N[C@@H](C)COC)ncc23)c1 [Compound 272] |
| ≤ 100 nM | 1000 to 10000 nM | CNC(=O)c1cncc(-c2cc([C@H]3CC[C@H](O)CC3)n3nc(N[C@@H](C)CC(F)(F)F)ncc23)c1 [Compound 304] |
| ≤ 100 nM | 1000 to 10000 nM | COC[C@H](C)Nc1ncc2c(-c3cnn(C(C)(C)C(=O)N4C[C@H]5CC[C@@H](C4)O5)c3)cc([C@H]3CC[C@H](O)CC3)n2n1 [Compound 327] |
| ≤ 100 nM | ≤ 100 nM | CNC(=O)c1ccc(-c2cc([C@H]3CC[C@H](O)CC3)n3nc(N[C@@H](C)COC)ncc23)cn1 [Compound 317] |
| ≤ 100 nM | 100 to 1000 nM | COC[C@H](C)Nc1ncc2c(-c3ccnc(N4CCCC4)c3)cc([C@H]3CC[C@H](O)CC3)n2n1 [Compound 339] |
| ≤ 100 nM | 100 to 1000 nM | COC[C@H](C)Nc1ncc2c(-c3cnn(CC4CNC(=O)C4)c3)cc([C@H]3CC[C@H](O)CC3)n2n1 (stereo partly drawn) [Compound 303] |
| ≤ 100 nM | ≤ 100 nM | COC[C@H](C)Nc1ncc2c(-c3cnn(C4CC(S(C)(=O)=O)C4)c3)cc([C@H]3CC[C@H](O)CC3)n2n1 (stereo partly drawn) [Compound 287] |
| ≤ 100 nM | 100 to 1000 nM | Cc1cc(-c2cc([C@H]3CC[C@H](O)CC3)n3nc(N[C@@H](C)C(F)F)ncc23)ccn1 [Compound 309] |
| ≤ 100 nM | 100 to 1000 nM | COC[C@H](C)Nc1ncc2c(-c3cnn(C[C@H]4CCC(=O)N4)c3)cc([C@H]3CC[C@H](O)CC3)n2n1 [Compound 324] |
| 100 to 1000 nM | 1000 to 10000 nM | CNC(=O)c1cc(-c2cc([C@H]3CC[C@H](O)CC3)n3nc(N[C@@H](C)COC)ncc23)cc(C)n1 [Compound 335] |
